Where a SMILES comes first, the peptide text is derived from it. Bridges are numbered along the chain shown (N, C = ends). Where no end group is shown, it is not given here.
biological target: His-tagged recombinant human CD13 (rCD13) (human) (UniProt P15144); experiment: not given; conditions: not given
Sequence (P15144 33-967): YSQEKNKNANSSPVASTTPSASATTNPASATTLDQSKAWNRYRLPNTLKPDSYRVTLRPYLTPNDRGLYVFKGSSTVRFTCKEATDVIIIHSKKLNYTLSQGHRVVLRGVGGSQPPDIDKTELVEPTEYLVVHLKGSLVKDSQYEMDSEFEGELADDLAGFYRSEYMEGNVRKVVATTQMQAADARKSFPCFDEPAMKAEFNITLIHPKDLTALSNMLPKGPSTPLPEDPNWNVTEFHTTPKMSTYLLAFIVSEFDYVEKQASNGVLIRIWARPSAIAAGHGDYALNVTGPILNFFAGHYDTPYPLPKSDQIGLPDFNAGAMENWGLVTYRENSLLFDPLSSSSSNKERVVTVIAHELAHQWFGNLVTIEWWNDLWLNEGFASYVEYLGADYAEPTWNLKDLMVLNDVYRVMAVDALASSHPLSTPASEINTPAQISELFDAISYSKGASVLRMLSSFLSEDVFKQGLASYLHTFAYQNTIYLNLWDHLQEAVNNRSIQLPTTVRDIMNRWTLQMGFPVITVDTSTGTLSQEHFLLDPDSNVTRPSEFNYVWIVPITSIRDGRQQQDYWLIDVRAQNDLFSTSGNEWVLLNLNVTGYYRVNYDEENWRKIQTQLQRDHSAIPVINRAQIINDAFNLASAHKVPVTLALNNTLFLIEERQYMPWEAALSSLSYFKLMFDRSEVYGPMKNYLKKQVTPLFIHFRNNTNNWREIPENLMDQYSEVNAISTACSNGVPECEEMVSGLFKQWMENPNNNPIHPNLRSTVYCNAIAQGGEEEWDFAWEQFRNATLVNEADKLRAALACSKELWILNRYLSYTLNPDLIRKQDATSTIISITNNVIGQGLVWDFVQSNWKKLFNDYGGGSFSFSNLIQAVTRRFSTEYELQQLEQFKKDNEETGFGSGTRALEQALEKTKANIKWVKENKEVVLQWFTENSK

Row | Molecule | inhibition of rCD13 enzymatic activity, against … (fold loss of activity) | IC50 of inhibition of rCD13 enzymatic activity [µM] | inhibition of rCD13 enzymatic activity, against … (fold decrease)
1 | GCARRYCSN [… with deletion of Val-1] | 200 | – | –
2 | CARRYCSN [… with deletion of Val-1 and Gly-2] | 270 | – | –
3 | CARRYC (disulfide 1-6 (inferred)) [small disulfide-bridged peptide CARRYC] | – | 51 | –
4 | VGCARRYC [… with deletion of Ser-9 and Asn-10] | – | – | 3

biological target: T1, recombinant human CD13 (rCD13) (Homo sapiens, UniProt P15144); experiment: rCD13 enzyme inhibition assay, L-alanine-p-nitroanilide substrate; assay type: biochemical; conditions: negative control peptide; rCD13 0.2 µg/ml, L-alanine-p-nitroanilide, Supplementary Fig. S2A
T1 construct: consisting of the CD13 extracellular domain expressed in HEK-293 cells; His-tag; purchased Sino Biological 10051-H08H; host or cells: HEK-293 cells
Experimental: (§1) Recombinant CD13 (rCD13) enzyme activity and inhibition assays were performed as described previously using L-alanine-p-nitroanilide or L-alanine 7-amido-4-methylcoumarin as substrates in 60 mM Tris–HCl, pH 7.4, or 60 mM potassium phosphate buffer, pH 7.4. Mixtures containing peptides at various concentrations, rCD13 (0.2 µg/mL), and L-alanine-p-nitroanilide substrate (0.5 mM) in 60 mM potassium phosphate buffer, pH 7.4 (total volume, 0.1 ml) were prepared and left to react for 30 min at 37 °C. The products were then analyzed using a plate reader (iMark Microplate Absorbance Reader; Bio-Rad). Alternatively, the assay was performed using 0.1 mM L-alanine 7-amido-4-methylcoumarin in 60 mM Tris–HCl, pH 7.4, as a substrate. Fluorescence intensity of methylcoumarin was measured on an Infinite 200 PRO plate reader (Tecan) using the following settings: excitation wavelength: 341 nm; emission wavelength: 441 nm; excitation bandwidth: 9; emission bandwidth: 20 nm; gain: 109 manual; number of flashes: 25; integration time: 20 µs; lag time: 0 µs; settle time: 0 ms.
(§2) The IC50 of each inhibitor was calculated by non-linear regression analysis of inhibition data using GraphPad Prism Software (GraphPad Software, Version 9.00, San Diego, CA). Steady-state enzyme kinetic analyses were performed using various concentrations of L-alanine-p-nitroanilide (0–1.5 mM) and VGCARRYCS peptide (0–900 nM). The initial velocities (Vo) were calculated from the slopes of the first 5 min of reaction. The enzyme inhibitory constant (Ki) was calculated using the competitive enzyme inhibition model in GraphPad Prism Software.
A) VGCGRRYCSN and CSGIGSSGGC (control) peptides, at various concentrations, were mixed with rCD13 (0.2 µg/mL), L-alanine-p-nitroanilide substrate (0.5 mM), in 60 mM potassium phosphate buffer, pH 7.4. The mixtures were left to react for 30 min at 37° C; then the absorbance at 405 nm of each mixture was measured using an ELISA plate reader (Bio-Rad). The IC50 of each inhibitor was calculated by non-linear regression analysis of inhibition data using the GraphPad Prism Software (GraphPad Software, Version 9.00, San Diego, CA). The result of one experiment performed in duplicate is shown (mean ± SEM).

T1 sequence (P15144 33-967 limits assumed): as the sequence (P15144 33-967) above

Row | Molecule | Inhibition of rCD13 enzymatic activity (in words)
5 | CSGIGSGGC [negative control peptide, reference compound] | no inhibition

same assay, conditions: rCD13 0.2 μg/mL, L-alanine-p-nitroanilide 0.5 mM, 60 mM potassium phosphate buffer pH 7.4, 30 min, 37 °C, absorbance; mean ± SEM of n independent experiments; read-out: IC50: peptide concentration that inhibits 50% of rCD13 enzymatic activity

Row | Molecule | IC50 [µM]
6 | C[C@H](N)C(=O)NCC(=O)N[C@H]1CSSC[C@@H](C(=O)N[C@@H](CO)C(=O)N[C@@H](CC(N)=O)C(=O)O)NC(=O)[C@H](Cc2ccc(O)cc2)NC(=O)[C@H](CCCNC(=N)N)NC(=O)[C@H](CCCNC(=N)N)NC(=O)CNC1=O [AGCGRRYCSN] (H-AGCGRRYCSN-OH; disulfide 3-8) | 11.4 ± 4.5
7 | CC(C)[C@H](N)C(=O)N[C@@H](C)C(=O)N[C@H]1CSSC[C@@H](C(=O)N[C@@H](CO)C(=O)N[C@@H](CC(N)=O)C(=O)O)NC(=O)[C@H](Cc2ccc(O)cc2)NC(=O)[C@H](CCCNC(=N)N)NC(=O)[C@H](CCCNC(=N)N)NC(=O)CNC1=O [VACGRRYCSN] (H-VACGRRYCSN-OH; disulfide 3-8) | 4.5 ± 5.1
8 | CC(C)[C@H](N)C(=O)NCC(=O)N[C@H]1CSSC[C@@H](C(=O)N[C@@H](CO)C(=O)N[C@@H](CC(N)=O)C(=O)O)NC(=O)[C@H](Cc2ccc(O)cc2)NC(=O)[C@H](CCCNC(=N)N)NC(=O)[C@H](CCCNC(=N)N)NC(=O)[C@H](C)NC1=O [VGCARRYCSN] (H-VGCARRYCSN-OH; disulfide 3-8) | 0.2 ± 0.06
9 | CC(C)[C@H](N)C(=O)NCC(=O)N[C@H]1CSSC[C@@H](C(=O)N[C@@H](CO)C(=O)N[C@@H](CC(N)=O)C(=O)O)NC(=O)[C@H](Cc2ccc(O)cc2)NC(=O)[C@H](CCCNC(=N)N)NC(=O)[C@H](C)NC(=O)CNC1=O [VGCGARYCSN] (H-VGCGARYCSN-OH; disulfide 3-8) | 12.1 ± 8.4
10 | CC(C)[C@H](N)C(=O)NCC(=O)N[C@H]1CSSC[C@@H](C(=O)N[C@@H](CO)C(=O)N[C@@H](CC(N)=O)C(=O)O)NC(=O)[C@H](Cc2ccc(O)cc2)NC(=O)[C@H](C)NC(=O)[C@H](CCCNC(=N)N)NC(=O)CNC1=O [VGCGRAYCSN] (H-VGCGRAYCSN-OH; disulfide 3-8) | 17.6 ± 4.6
11 | CC(C)[C@H](N)C(=O)NCC(=O)N[C@H]1CSSC[C@@H](C(=O)N[C@@H](CO)C(=O)N[C@@H](CC(N)=O)C(=O)O)NC(=O)[C@H](C)NC(=O)[C@H](CCCNC(=N)N)NC(=O)[C@H](CCCNC(=N)N)NC(=O)CNC1=O [VGCGRRACSN] (H-VGCGRRACSN-OH; disulfide 3-8) | 8.9 ± 5.5
12 | CC(C)[C@H](N)C(=O)NCC(=O)N[C@H]1CSSC[C@@H](C(=O)N[C@@H](CO)C(=O)N[C@@H](CC(N)=O)C(=O)O)NC(=O)[C@H](Cc2ccc(O)cc2)NC(=O)[C@H](CCCNC(=N)N)NC(=O)[C@H](CCCNC(=N)N)NC(=O)CNC1=O [VGCGRRYCSN] (H-VGCGRRYCSN-OH; disulfide 3-8) | 2.01 ± 1.1
13 | VGAGRRYASN [VGAGRRYASN] | 6.2 ± 4.8

biological target: T1, recombinant human CD13 (rCD13); experiment: rCD13 enzyme inhibition assay, L-alanine 7-amido-4-methylcoumarin substrate; assay type: biochemical; conditions: 0.1 mM L-alanine 7-amido-4-methylcoumarin, 60 mM Tris-HCl pH 7.4, fluorescence; mean ± SEM of n independent experiments; read-out: IC50: peptide concentration that inhibits 50% of rCD13 enzymatic activity
Experimental: as §1, §2
Fig. 2 G4 recognizes soluble forms of CD13, with higher affinity and selectivity than bestatin, and the membrane forms expressed on the surface of HUVEC cells. A Inhibitory effects of G4 and bestatin on the enzymatic activities of different aminopeptidases (rCD13, APA, and APB). Various amounts of G4 or bestatin were incubated with rCD13 (0.2 µg/mL in 60 mM Tris–HCl pH 7.4), APA (0.2 µg/mL in 60 mM Tris–HCl pH 7.4, 50 mM calcium chloride, 200 mM sodium chloride) or APB (0.2 µg/mL in 60 mM Tris–HCl pH 7.4, 100 mM potassium chloride) and the corresponding substrates at 0.1 mM (L-alanine-7-amido-4-methylcoumarin for rCD13, L-glutamic acid γ-(7-amido-4-methylcoumarin) for APA, and L-arginine-7-amido-4-methylcoumarin for APB). The mixtures were incubated for 30 min at 37 °C, and the cleavage of each substrate was monitored by measuring the fluorescence of methylcoumarin (λex 341 nm; λem 441 nm) using an Infinite 200 PRO plate reader (Tecan). Three independent experiments were performed for each enzyme. The results of one representative experiment for each enzyme are shown (mean ± SEM, duplicates). B Inhibitory effects of G4 and bestatin on soluble CD13 immunocaptured from human serum (sCD13) using microtiter plates coated with anti-CD13 mAb WM15. The microtiter plate was filled with a solution of mAb WM15 (5 μg/ml in DPBS) and incubated overnight at 4 °C. The plate was then washed with DPBS, blocked with 3% bovine serum albumin (BSA) in DPBS, and filled with human serum containing soluble CD13 (diluted 1:2 with DPBS containing 2% BSA). After washing with DPBS, mixtures of G4 or bestatin (0–100 µM in 60 mM Tris–HCl, pH 7.4) and L-alanine p-nitroanilide hydrochloride substrate (4.5 mM in 60 mM Tris–HCl, pH 7.4) were added and left to incubate at 37 °C for 2 h. Substrate cleavage by sCD13 dissociated from mAb WM15 was then monitored by measuring the absorbance at 405 nm in each well using a plate reader (Bio-Rad). The results of one experiment performed in triplicate are shown (mean ± SEM). C Effect of G4 on the binding of the anti-CD13 mAb WM15 to HUVEC. HUVEC were seeded at a density of 2 × 10^5 cells in 100 µL DPBS supplemented with 5% normal human serum (NHS) and incubated with a mixture of G4 peptide (0, 0.1, 1, and 10 µM) and mAb WM15 (0 or 0.13 nM) as indicated. […]

Row | Molecule | IC50 [µM]
14 | C[C@@H]1NC(=O)[C@@H](NC(=O)CN)CSSC[C@@H](C(=O)N[C@@H](CO)C(=O)N[C@@H](CC(N)=O)C(=O)O)NC(=O)[C@H](Cc2ccc(O)cc2)NC(=O)[C@H](CCCNC(=N)N)NC(=O)[C@H](CCCNC(=N)N)NC1=O [GCARRYCSN] (H-GCARRYCSN-OH; disulfide 2-7) | 40.1 ± 1.9
15 | C[C@@H]1NC(=O)[C@@H](NC(=O)CN)CSSC[C@@H](C(=O)N[C@@H](CO)C(=O)O)NC(=O)[C@H](Cc2ccc(O)cc2)NC(=O)[C@H](CCCNC(=N)N)NC(=O)[C@H](CCCNC(=N)N)NC1=O [GCARRYCS] (H-GCARRYCS-OH; disulfide 2-7) | 69.5 ± 0.1
16 | CC(C)[C@H](N)C(=O)NCC(=O)N[C@H]1CSSC[C@@H](C(=O)N[C@@H](CO)C(=O)N[C@@H](CC(N)=O)C(=O)O)NC(=O)[C@H](Cc2ccc(O)cc2)NC(=O)[C@H](CCCNC(=N)N)NC(=O)[C@H](CCCNC(=N)N)NC(=O)[C@H](C)NC1=O [VGCARRYCSN] (H-VGCARRYCSN-OH; disulfide 3-8) | 0.19 ± 0.01
17 | CC(C)[C@H](N)C(=O)NCC(=O)N[C@H]1CSSC[C@@H](C(=O)O)NC(=O)[C@H](Cc2ccc(O)cc2)NC(=O)[C@H](CCCNC(=N)N)NC(=O)[C@H](CCCNC(=N)N)NC(=O)[C@H](C)NC1=O [VGCARRYC] (H-VGCARRYC-OH; disulfide 3-8) | 0.23 ± 0.01
18 | CC(=O)N[C@H](C(=O)NCC(=O)N[C@H]1CSSC[C@@H](C(=O)N[C@@H](CO)C(=O)N[C@@H](CC(N)=O)C(=O)O)NC(=O)[C@H](Cc2ccc(O)cc2)NC(=O)[C@H](CCCNC(=N)N)NC(=O)[C@H](CCCNC(=N)N)NC(=O)[C@H](C)NC1=O)C(C)C [ac-VGCARRYCSN] (Ac-VGCARRYCSN-OH; disulfide 3-8; C-terminus assumed) | > 1000
